In patent publication US20110207609A1, “Piperazine Compounds With Herbicidal Effect” (BASF SE, priority 2008, published 2011):

Legend:
APESV = experiment: greenhouse test, pre-emergence treatment; format: in vivo, Apera spica-venti
Procedure: (§1) The culture containers used were plastic flowerpots containing loamy sand with approximately 5.8% of humus as the substrate. The seeds of the test plants were sown separately for each species.
(§2) The containers were irrigated gently to promote germination and growth and subsequently covered with transparent plastic hoods until the plants had rooted.
(§3) Depending on the species, the plants were kept at 10-25° C. or 20-35° C. The test period extended over 1 to 4 weeks. During this time, the plants were tended, and their response to the individual treatments was evaluated.
(§4) Evaluation was carried out using a scale from 0 to 100. 100 means no emergence of the plants, or complete destruction of at least the aerial moieties, and 0 means no damage, or normal course of growth. A good herbicidal activity is given at values of at least 70 and a very good herbicidal activity is given at values of at least 85.

MATIN [1] = experiment: greenhouse test, post-emergence treatment; format: in vivo, Matricaria inodora; conditions: 2.0 kg/ha, scale 0 to 100
Source text: as §1
(§5) For the post-emergence treatment, the test plants were first grown to a height of 1.5 to 15 cm, depending on the plant habit, and then treated with the active compounds which had been suspended or emulsified in water. For this purpose, the test plants were either sown directly and grown in the same containers, or they were first grown separately as seedlings and transplanted into the test containers a few days prior to treatment.
as §3, §4

MATIN [2] = experiment: greenhouse test, pre-emergence treatment; format: in vivo, Matricaria inodora; conditions: 2.0 kg/ha, scale 0 to 100
Source text: as §1
(§6) For the pre-emergence treatment, the active compounds, which had been suspended or emulsified in water, were applied directly after sowing by means of finely distributing nozzles. The containers were irrigated gently to promote germination and growth and subsequently covered with transparent plastic hoods until the plants had rooted. This cover caused uniform germination of the test plants, unless this has been impaired by the active compounds.
as §3, §4

AGSST = experiment: greenhouse test, post-emergence treatment; format: in vivo, Agrostis alba; conditions: 2.0 kg/ha, scale 0 to 100
Source text: as §1, §5, §3, §4

SETFA = experiment: greenhouse test, pre-emergence treatment; format: in vivo, Setaria faberi; conditions: comparative experiment, 0.5 kg/ha
Procedure: as §1, §2, §3, §4

AMARE = experiment: greenhouse test, post-emergence treatment; format: in vivo, Amaranthus retroflexus; conditions: 0.5 kg/ha, scale 0 to 100
Source text: as §1, §5, §3, §4

GALAP = experiment: greenhouse test, post-emergence treatment; format: in vivo, Galium aparine; conditions: 0.5 kg/ha, scale 0 to 100
Source text: as §1, §5, §3, §4

CHEAL = experiment: greenhouse test, post-emergence treatment; format: in vivo, Chenopodium album; conditions: 1.0 kg/ha, scale 0 to 100
Source text: as §1, §5, §3, §4

SETVI = experiment: greenhouse test, pre-emergence treatment; format: in vivo, Setaria viridis; conditions: 1.0 kg/ha, scale 0 to 100
Source text: as §1, §6, §3, §4

ECHCG = experiment: greenhouse test, post-emergence treatment; format: in vivo, Echinochloa crus-galli; conditions: 1.0 kg/ha, scale 0 to 100
Source text: as §1, §5, §3, §4

[3] = comparative experiment, 0.5 kg/ha

## CN1C(=O)C(C)(Cc2ccccc2)N(C)C(=O)C1=Cc1cnn2cccnc12 (racemic) [I-61]
APESV; 1.0 kg/ha, scale 0 to 100
  herbicidal activity: good (A good herbicidal activity is given at values of at least 70)

## CN1C(=O)C(C)(Cc2ccccc2)N(C)C(=O)C1=Cc1occc1Br (racemic) [I-11]
MATIN [1]
  herbicidal activity: very good (a very good herbicidal activity is given at values of at least 85)
MATIN [2]
  herbicidal activity: very good (a very good herbicidal activity is given at values of at least 85)
AGSST
  herbicidal activity: very good (a very good herbicidal activity is given at values of at least 85)

## CN1C(=O)C(C)(Cc2ccccc2)N(C)C(=O)C1=Cc1cc(Cl)sc1Cl (racemic) [I-56]
APESV; [3]
  herbicidal activity: 80%
SETFA
  herbicidal activity: 80%

## CN1C(=O)C(Cc2cscc2C(F)(F)F)N(C)C(=O)C1Cc1ccccc1 (centres unmarked) [Ex. I.236.1, reference compound]
APESV; [3]
  herbicidal activity: 20%

## Cc1ncn(C)c1C=C1C(=O)N(C)C(C)(Cc2ccccc2)C(=O)N1C (racemic) [I-38]
AMARE
  herbicidal activity: good (A good herbicidal activity is given at values of at least 70)
GALAP
  herbicidal activity: very good (a very good herbicidal activity is given at values of at least 85)

## Cc1nn(C)c(Cl)c1C=C1C(=O)N(C)C(C)(Cc2ccccc2)C(=O)N1C (racemic) [I-15]
CHEAL
  herbicidal activity: very good (a very good herbicidal activity is given at values of at least 85)
SETVI
  herbicidal activity: very good (a very good herbicidal activity is given at values of at least 85)

## CN1C(=O)C(=Cc2cn(C)c3cccc([N+](=O)[O-])c23)NC(=O)C1(C)Cc1ccccc1 (racemic) [I-18]
ECHCG
  herbicidal activity: good (A good herbicidal activity is given at values of at least 70)

## CN1C(=O)C(C)(Cc2ccccc2)N(C)C(=O)C1Cc1cscc1C(F)(F)F (centres unmarked) [II-21]
APESV; [3]
  herbicidal activity: 98%
SETFA
  herbicidal activity: 95%
